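Values below derive from 48-hour exposures of cells grown in 96-well plates, with endpoints linearly interpolated between the two concentrations bracketing the appropriate inhibition level. At the GI50, growth is halved.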 Activity calls are given as the source filed them. Cut-off read from the data, not from the text of the source: active = GI50 up to about 1.1 µM and inactive = higher.
Tests used:
Assay in all cases: NCI tumour cell line growth inhibition, 48 h
NCI-H460 = system: NCI-H460
A498 = system: A498
IGROV-1 = system: IGROV-1
SNB-19 = system: SNB-19
U-251 = system: U-251
SW-620 = system: SW-620
UACC-257 = system: UACC-257
A549 = system: A549
M14 = system: M14
CCRF-CEM = system: CCRF-CEM
SNB-75 = system: SNB-75
NCI-H522 = system: NCI-H522
EKVX = system: EKVX
UACC-62 = system: UACC-62
K562 = system: K562
NCI-H23 = system: NCI-H23
ACHN = system: ACHN
HOP-92 = system: HOP-92
RPMI-8226 = system: RPMI-8226
OVCAR-3 = system: OVCAR-3

Structure (SMILES) | GI50 (NCI-H460) | GI50 (A498) | GI50 (IGROV-1) | GI50 (SNB-19) | GI50 (U-251) | GI50 (SW-620) | GI50 (UACC-257) | GI50 (A549) | GI50 (M14) | GI50 (CCRF-CEM) | GI50 (SNB-75) | GI50 (NCI-H522) | GI50 (EKVX) | GI50 (UACC-62) | GI50 (K562) | GI50 (NCI-H23) | GI50 (ACHN) | GI50 (HOP-92) | GI50 (RPMI-8226) | GI50 (OVCAR-3)
CN(C)C(=O)Nc1c([N+](=O)[O-])cc(C(F)(F)F)cc1[N+](=O)[O-] | 42.9 µM (inactive) | > 100 µM (inactive) | > 100 µM (inactive) | > 100 µM (inactive) | > 100 µM (inactive) | 32.7 µM (inactive) | 27.8 µM (inactive) | 45 µM (inactive) | 44.6 µM (inactive) | 79.1 µM (inactive) | 74 µM (inactive) | 29.9 µM (inactive) | > 100 µM (inactive) | 46.9 µM (inactive) | 37.6 µM (inactive) | 27.7 µM (inactive) | 83.4 µM (inactive) | 53.5 µM (inactive) | 41.1 µM (inactive) | 19.5 µM (inactive)
COc1ccc2cc(CNCCCCCCCCNCc3ccc4cc(OC)ccc4c3)ccc2c1 | 2.07 µM (inactive) | 6.38 µM (inactive) | 5.21 µM (inactive) | 4.1 µM (inactive) | 3.66 µM (inactive) | 1.97 µM (inactive) | 6.76 µM (inactive) | 13.5 µM (inactive) | 1.86 µM (inactive) | 2.54 µM (inactive) | 3.41 µM (inactive) | 4.37 µM (inactive) | 6.87 µM (inactive) | 2.01 µM (inactive) | 0.975 µM (active) | 13.8 µM (inactive) | 5.94 µM (inactive) | 5.32 µM (inactive) | 1.48 µM (inactive) | 6.61 µM (inactive)
CC(=O)c1ccc(Nc2c3c(nc4ccccc24)CCCC3)cc1 | 17.5 µM (inactive) | > 31.8 µM (inactive) | 3.79 µM (inactive) | 20.2 µM (inactive) | 19.1 µM (inactive) | 16.9 µM (inactive) | 24.5 µM (inactive) | 19 µM (inactive) | 12.6 µM (inactive) | 15.9 µM (inactive) | 4.12 µM (inactive) | 3.85 µM (inactive) | 28 µM (inactive) | 17.1 µM (inactive) | 16.4 µM (inactive) | 11.3 µM (inactive) | 38.3 µM (inactive) | 21.1 µM (inactive) | 27.6 µM (inactive) | 11.5 µM (inactive)
Cc1[nH]c(-c2ccccc2)c(O)c1C(=O)OC12CC3CC(CC(C3)C1)C2 | 7.82 µM (inactive) | 20.5 µM (inactive) | 14.1 µM (inactive) | 15 µM (inactive) | 14.9 µM (inactive) | 16.2 µM (inactive) | 16.5 µM (inactive) | 12.1 µM (inactive) | 12.4 µM (inactive) | 39 µM (inactive) | 10.8 µM (inactive) | 10.1 µM (inactive) | 13.8 µM (inactive) | 17.3 µM (inactive) | > 100 µM (inactive) | 16.3 µM (inactive) | 16.1 µM (inactive) | 18.8 µM (inactive) | 37 µM (inactive) | 14.6 µM (inactive)
CC(=O)Nc1c(C)cc2c(nc3n2CCC3O)c1[N+](=O)[O-] (stereo not given) | > 100 µM (inactive) | > 100 µM (inactive) | > 100 µM (inactive) | > 100 µM (inactive) | > 100 µM (inactive) | > 100 µM (inactive) | > 100 µM (inactive) | > 100 µM (inactive) | > 100 µM (inactive) | > 100 µM (inactive) | > 100 µM (inactive) | > 100 µM (inactive) | > 100 µM (inactive) | > 100 µM (inactive) | > 100 µM (inactive) | > 100 µM (inactive) | > 100 µM (inactive) | > 100 µM (inactive) | > 100 µM (inactive) | > 100 µM (inactive)
CCC1(Cl)C(=O)NC(=O)N(C2CC(O)C(CO)O2)C1N=[N+]=[N-] (stereo not given) | > 100 µM (inactive) | > 100 µM (inactive) | > 100 µM (inactive) | > 100 µM (inactive) | > 100 µM (inactive) | > 100 µM (inactive) | > 100 µM (inactive) | > 100 µM (inactive) | > 100 µM (inactive) | > 100 µM (inactive) | > 100 µM (inactive) | > 100 µM (inactive) | > 100 µM (inactive) | > 100 µM (inactive) | > 100 µM (inactive) | 65.3 µM (inactive) | > 100 µM (inactive) | > 100 µM (inactive) | > 100 µM (inactive) | > 100 µM (inactive)
O=c1ccc(=O)n(-c2ccccc2)[nH]1 | > 100 µM (inactive) | > 100 µM (inactive) | > 100 µM (inactive) | > 100 µM (inactive) | > 100 µM (inactive) | > 100 µM (inactive) | > 100 µM (inactive) | > 100 µM (inactive) | > 100 µM (inactive) | > 100 µM (inactive) | > 100 µM (inactive) | > 100 µM (inactive) | > 100 µM (inactive) | > 100 µM (inactive) | > 100 µM (inactive) | > 100 µM (inactive) | > 100 µM (inactive) | > 100 µM (inactive) | > 100 µM (inactive) | > 100 µM (inactive)
Cc1cc(N(CCOS(C)(=O)=O)CCOS(C)(=O)=O)ccc1/C=N/c1ccc(-c2nc(Cc3ccccc3)sc2C)cc1 | 0.0281 µM (active) | 1.55 µM (inactive) | 10.7 µM (inactive) | 8.3 µM (inactive) | 6.64 µM (inactive) | 8.57 µM (inactive) | 12.1 µM (inactive) | 1.33 µM (inactive) | 4.86 µM (inactive) | 0.471 µM (active) | 1.66 µM (inactive) | 0.233 µM (active) | 4.27 µM (inactive) | 1.47 µM (inactive) | 5.61 µM (inactive) | 2.91 µM (inactive) | 0.404 µM (active) | 8.71 µM (inactive) | 3.82 µM (inactive) | 2.87 µM (inactive)
O=C(O)c1ccc2c(c1)CC1(C2)Cc2cc3c(cc2C1=O)CCC3 (stereo not given) | > 100 µM (inactive) | 19.5 µM (inactive) | > 100 µM (inactive) | > 100 µM (inactive) | > 100 µM (inactive) | > 100 µM (inactive) | > 100 µM (inactive) | 69 µM (inactive) | > 100 µM (inactive) | > 100 µM (inactive) | 56 µM (inactive) | > 100 µM (inactive) | > 100 µM (inactive) | > 100 µM (inactive) | > 100 µM (inactive) | > 100 µM (inactive) | > 100 µM (inactive) | 69 µM (inactive) | > 100 µM (inactive) | > 100 µM (inactive)
COc1cccc2c1C(=O)OC2c1cccc2ccccc12 (stereo not given) | 98.9 µM (inactive) | > 52.5 µM (inactive) | > 100 µM (inactive) | 61.2 µM (inactive) | 67.5 µM (inactive) | > 100 µM (inactive) | > 91 µM (inactive) | > 100 µM (inactive) | > 100 µM (inactive) | > 100 µM (inactive) | 23.8 µM (inactive) | > 100 µM (inactive) | > 100 µM (inactive) | > 100 µM (inactive) | > 100 µM (inactive) | > 100 µM (inactive) | > 100 µM (inactive) | 30.9 µM (inactive) | > 100 µM (inactive) | 74.8 µM (inactive)
CC1=C2C(=O)C3[C@@H](CCC4=CC(=O)CC[C@@]43C)C2CC[C@]12O[C@@H]1C[C@H](C)CN[C@H]1[C@H]2C (stereo not given in full) | 33.5 µM (inactive) | 32.3 µM (inactive) | > 100 µM (inactive) | 44.4 µM (inactive) | 21.4 µM (inactive) | 57.9 µM (inactive) | 36 µM (inactive) | 28 µM (inactive) | 59 µM (inactive) | 15.9 µM (inactive) | 72.8 µM (inactive) | 21 µM (inactive) | 49 µM (inactive) | 23.4 µM (inactive) | 17.4 µM (inactive) | 37.6 µM (inactive) | 31.4 µM (inactive) | 48.2 µM (inactive) | 20.7 µM (inactive) | 45.8 µM (inactive)
N#CC(C(=O)/C(=N/Nc1nc(S)nn1N)C(C#N)c1ccccc1)c1ccccc1 (stereo not given) | > 100 µM (inactive) | > 100 µM (inactive) | > 100 µM (inactive) | > 100 µM (inactive) | > 100 µM (inactive) | > 100 µM (inactive) | > 100 µM (inactive) | > 100 µM (inactive) | > 100 µM (inactive) | > 100 µM (inactive) | > 100 µM (inactive) | > 100 µM (inactive) | > 100 µM (inactive) | > 100 µM (inactive) | > 100 µM (inactive) | > 100 µM (inactive) | > 100 µM (inactive) | > 100 µM (inactive) | > 100 µM (inactive) | > 100 µM (inactive)
CC(=O)Nc1cc(C(=O)Nc2cc(C(=O)N3CC(CCl)c4c3cc(N)c3ccccc43)nn2C)nn1C (stereo not given) | < 0.01 µM (active) | < 0.0115 µM (active) | 0.0405 µM (active) | 0.127 µM (active) | 0.0194 µM (active) | < 0.0383 µM (active) | 0.186 µM (active) | 0.187 µM (active) | 0.286 µM (active) | < 0.01 µM (active) | 0.0215 µM (active) | < 0.01 µM (active) | 0.159 µM (active) | < 0.0118 µM (active) | 0.0381 µM (active) | < 0.0104 µM (active) | < 0.0148 µM (active) | < 0.0218 µM (active) | 0.188 µM (active) | 0.23 µM (active)

Reference: ChEMBL document CHEMBL1201862, “PubChem BioAssay data set” (2004)
